Data taken from PubChem BioAssay AID212 (DTP/NCI, 2004).
“And” between values parts separate entries of the source, which are not always exact repeats. Equal values may be shown once. Records with an inconclusive call do not appear.

Test system: BDF1 mice, colon carcinoma 38 sc, T/C %
Test: NCI In Vivo Anticancer Drug Screen. Data for tumor model Colon Carcinoma 38 (subcutaneous) in B6D2F1 (BDF1) mice
Conditions: endpoint: median tumor weight (est.), higher = larger tumour
Method: The antitumor activity of compounds was measured in mice bearing transplantable tumors. Survival or tumor size were measured and the results are expressed as the measurement made in the treated group (T) divided by the measurement made in the vehicle treated control group (C). The tumor model used in this assay is Colon Carcinoma 38 (subcutaneous) in B6D2F1 (BDF1) mice

[1] = dose: 25.0 mg/kg/injection, schedule: Q07DX003 (ip), vehicle: Klucel (hydroxypropylcellulose) (HPC)
[2] = dose: 4.0 mg/kg/injection, schedule: Q07DX002 (ip), vehicle: saline

CC(=O)OCC1OC(n2cc(CBr)nn2)C(OC(C)=O)C(OC(C)=O)C1OC(C)=O (centres undefined)
T/C (dose: 6.25 mg/kg/injection, schedule: Q07DX003 (ip), vehicle: Klucel (hydroxypropylcellulose) (HPC)): 46 % of control
T/C (dose: 6.25 mg/kg/injection, schedule: Q07DX003 (ip), vehicle: saline with Tween-80): 120 % of control
T/C (dose: 12.5 mg/kg/injection, schedule: Q07DX003 (ip), vehicle: Klucel (hydroxypropylcellulose) (HPC)): 93 % of control
T/C (dose: 12.5 mg/kg/injection, schedule: Q07DX003 (ip), vehicle: saline with Tween-80): 67 % of control
T/C [1]: 120 % of control
T/C (dose: 25.0 mg/kg/injection, schedule: Q07DX003 (ip), vehicle: saline with Tween-80): 90 % of control
T/C (dose: 50.0 mg/kg/injection, schedule: Q07DX003 (ip), vehicle: saline with Tween-80): 53 % of control
T/C (dose: 100.0 mg/kg/injection, schedule: Q07DX003 (ip), vehicle: saline with Tween-80): 64 % of control

CCN(CC)CCNc1ccc(C)c2sc3ccc(O)cc3c(=O)c12
T/C (dose: 25.0 mg/kg/injection, schedule: Q07DX002 (ip), vehicle: saline with Tween-80): 92 % of control
T/C (dose: 50.0 mg/kg/injection, schedule: Q07DX002 (ip), vehicle: saline with Tween-80): 74 % of control
T/C (dose: 100.0 mg/kg/injection, schedule: Q07DX002 (ip), vehicle: saline with Tween-80): 68 % of control
T/C (dose: 200.0 mg/kg/injection, schedule: Q07DX002 (ip), vehicle: saline with Tween-80): 33 % of control

COC(OC(CO)C(O)S(=O)(=O)O)C(O)S(=O)(=O)O (centres undefined)
T/C (dose: 12.5 mg/kg/injection, schedule: Q07DX002 (ip), vehicle: saline): 113 % of control
T/C (dose: 12.5 mg/kg/injection, schedule: Q07DX003 (ip), vehicle: saline): 123 % of control
T/C (dose: 25.0 mg/kg/injection, schedule: Q07DX002 (ip), vehicle: saline): 108 % of control
T/C (dose: 25.0 mg/kg/injection, schedule: Q07DX003 (ip), vehicle: saline): 100 % of control
T/C (dose: 50.0 mg/kg/injection, schedule: Q07DX002 (ip), vehicle: saline): 123 % of control and 105 % of control
T/C (dose: 50.0 mg/kg/injection, schedule: Q07DX003 (ip), vehicle: saline): 97 % of control
T/C (dose: 100.0 mg/kg/injection, schedule: Q07DX002 (ip), vehicle: saline): 95 % of control and 105 % of control
T/C (dose: 100.0 mg/kg/injection, schedule: Q07DX003 (ip), vehicle: saline): 110 % of control
T/C (dose: 200.0 mg/kg/injection, schedule: Q07DX002 (ip), vehicle: saline): 80 % of control and 105 % of control
T/C (dose: 200.0 mg/kg/injection, schedule: Q07DX003 (ip), vehicle: saline): 98 % of control
T/C (dose: 400.0 mg/kg/injection, schedule: Q07DX002 (ip), vehicle: saline): 85 % of control and 86 % of control
T/C (dose: 400.0 mg/kg/injection, schedule: Q07DX003 (ip), vehicle: saline): 50 % of control

COc1cc2c(cc1O)N=C[C@@H]1CCC(O)N1C2=O (mixture of isomers)
T/C (dose: 1.0 mg/kg/injection, schedule: Q07DX002 (ip), vehicle: saline): 72 % of control and 78 % of control
T/C (dose: 1.1 mg/kg/injection, schedule: Q07DX002 (ip), vehicle: distilled water + Tween-80): 62 % of control
T/C (dose: 2.2 mg/kg/injection, schedule: Q07DX002 (ip), vehicle: distilled water + Tween-80): 85 % of control
T/C [2]: 121 % of control and 105 % of control
T/C (dose: 4.5 mg/kg/injection, schedule: Q07DX002 (ip), vehicle: distilled water + Tween-80): 76 % of control
T/C (dose: 8.0 mg/kg/injection, schedule: Q07DX002 (ip), vehicle: saline): 81 % of control and 82 % of control
T/C (dose: 9.0 mg/kg/injection, schedule: Q07DX002 (ip), vehicle: distilled water + Tween-80): 66 % of control
T/C (dose: 16.0 mg/kg/injection, schedule: Q07DX002 (ip), vehicle: saline): 60 % of control

CSCS(=O)C[C@H](CO)NC(=O)/C=C/c1c(C)[nH]c(=O)[nH]c1=O (some centres undefined)
T/C (dose: 0.25 mg/kg/injection, schedule: Q07DX002 (ip), vehicle: saline): 110 % of control and 86 % of control
T/C (dose: 2.0 mg/kg/injection, schedule: Q07DX002 (ip), vehicle: saline): 105 % of control
T/C [2]: 62 % of control and 74 % of control

CC(CN1CC(=O)NC(=O)C1)N1CC(=O)NC(=O)C1 (centres undefined)
T/C [1]: 84 % of control and 89 % of control
T/C (dose: 50.0 mg/kg/injection, schedule: Q07DX003 (ip), vehicle: Klucel (hydroxypropylcellulose) (HPC)): 73 % of control and 85 % of control
T/C (dose: 200.0 mg/kg/injection, schedule: Q07DX003 (ip), vehicle: Klucel (hydroxypropylcellulose) (HPC)): 51 % of control and 54 % of control
T/C (dose: 400.0 mg/kg/injection, schedule: Q07DX003 (ip), vehicle: Klucel (hydroxypropylcellulose) (HPC)): 9 % of control and 15 % of control
